Assay type in all cases: physicochemical
The nature of series [1]: Near Infrared Dihydrate Conversion Test (NIR onset time). As to conditions: for NIR Onset Time: cefaclor dihydrate dried in fluidized bed to different water contents (Table 2). The source says:
“NIR onset time” refers to the time between addition of water to a cefaclor sample and the observation of an absorption peak at about 5798 cm^−1 (1725 nm) as measured by Near-Infrared Reflectance Spectroscopy (NIRS). Depending upon the particular instrument used, the exact peak measurement may vary within the standard deviation established for that particular instrument.
The NIRS conversion test measures the time in minutes before the onset of the crystal form reversion for a sample of cefaclor bulk. […] To ensure that a lot will have an acceptable dissolution rate, one generally strives for a NIR onset time of >7 minutes, preferably >9 minutes and more preferably >10 minutes.
Approximately 1 to 2 grams of sample was spread in a thin layer on the bottom of an open aluminum weighing pan and placed in a constant humidity chamber, containing a saturated aqueous solution of K2HPO4, for at least two hours prior to analysis. Following equilibration in the humidity chamber, the sample was packed into a 2 mm×6 mm, stainless steel sample cup until full (approximately 35 mg), and 6 μL of water placed in the center of the sample. NIR data were collected using the NIR Systems model 5000 equipped with a fiber optic diffuse-reflectance probe, positioned over the sample cup. Immediately following addition of the water, NIR spectra were recorded from 1100 to 2500 nm approximately each 30 seconds. The time elapsed prior to the first appearance of the dihydrate peak at 1725 nm (5798 cm^−1) was reported as the NIR onset time.

The nature of series [2]: X-ray diffraction conversion rate test (monohydrate to dihydrate after addition of water). The conditions noted are these: added at 0.5% by weight to poorly dissolving lot, mixed dry; 1 ml water to 0.80 g sample. The protocol:
Through X-ray diffraction studies of readily dissolving and incompletely dissolving lots of cefaclor, it was determined that all lots are initially in the same crystallographic state (monohydrate). Upon addition of water to readily dissolving lots, there is no change in the X-ray powder diffraction pattern over a five minute period. In contrast, when water is added to incompletely dissolving lot of cefaclor, substantial amounts of the dihydrate form are detected in less than five minutes. In an older lot of cefaclor, no dihydrate was detected for as long as two days, at which time the study was discontinued.
The Δ^2-isomer was added to a poorly dissolving lot of cefaclor at 0.5% concentration by weight. The sample was mixed in the dry state. After addition of 1 ml of water to a 0.80 g sample, the X-ray diffraction pattern was collected at different time intervals.
Kinetic studies were carried out using fraction 6 to gain a better understanding of how much would be required to achieve acceptable results in the model dissolution test.

The nature of series [3]: Solubility in water of crystal forms.
Series [4] can be described thus: Model Dissolution Test (capsule filled with drug substance only). The conditions noted are these: no related substances added; failed the test. The method, then:
Approximately 523 mg of bulk cefaclor is filled into an empty 500 mg cefaclor capsule (KG3062). The USP monograph dissolution test is then performed with filtered samples being withdrawn at 15, 30, and 45 minutes. The test conditions are USP Apparatus 2 at 50 rpm using 900 ml of purified water maintained at 37° C. Visual examination is done at the time of sample collection. Visual observations range from “the material is completely dissolved and/or dispersed within 5 minutes with no visible residue or agglomerates to a large intact mass remains at the end of 45 minutes that is hard to the touch.” An ultraviolet (UV) assay is conducted on the filtered aliquots to determine the percent dissolution.

A short description of series [5]: USP 23 Standard Dissolution Test for Cefaclor Capsules. Details: Capsule dissolution rate, 1st stage (Avg. n = 6) / Capsule dissolution rate, 1st stage, individual unit / Capsule dissolution rate, 2nd stage, individual unit: unit: %. The conditions noted are these: water 37° C., 30 minutes, then rehydrated; for Capsule dissolution rate, 1st stage, individual unit: % dissolved. The method, then:
Dissolution (711): The test conditions are USP Apparatus 2 at 50 rpm using 900 ml of purified water maintained at 37° C. for 30 minutes. Determine the amount of Cefaclor monohydrate dissolved from ultraviolet absorbances at the wavelength of maximum absorbances at about 264 nm of filtered portions of the solution under test, suitably diluted with water, in comparison with a Standard solution having a know concentration of USP Cefaclor RS in the same medium.
Dissolution testing is continued with additional units through three stages unless the results conform at either the 1st or 2nd stage according to the following acceptance
The quantity, Q, is the % of dissolved active ingredient in the specification. For Cefaclor, at Stage 1, each individual unit must be at least 85% dissolved in 30 minutes to pass the testing. If any of the 6 units tested is less than 85% dissolved, the product fails level S1 and you must go to S2. At Stage 2, the mean of the twelve units tested (first 6 from S1 and 6 from S2) must be at least 80% dissolved and no unit may be less than 65% dissolved. If these criteria are not met, the product fails the level S2 specification and you must go to S3. At Stage 3, the mean of the 24 units tested (6 from S1+6 from S2+12 from S3) must be at least 80% dissolved, no more than 2 units may be less than 65% dissolved, and none of the units may be less than 55% dissolved.

[6] abbreviates: lots dried with full desiccation dried air.
Where [7] appears, read: bulk dried to 3.0 to 6.5% water (control method).
Setting [8] is: lots dried with 40 grains dried air.

The text below walks through data of US6596307B1, “Process for preparing pharmaceutical bulk material having uniform dissolution” (Eli Lilly and Company, priority 2001, dated 2003).

Values joined by “and” are separate entries in the source; they are usually repeats but may differ in a detail not shown here. Equal entries are not always repeated.

Turning to `N[C@@H](C(=O)N[C@@H]1C(=O)N2C(C(=O)O)=C(Cl)CS[C@H]12)c1ccccc1.O` [Sample 1-3], the “NIR Onset Time” value in series [1] is 2.5 min.

In the case of `N[C@@H](C(=O)NC1C(=O)N2C(C(=O)O)C(Cl)=CS[C@H]12)c1ccccc1` (stereo partly drawn) [Δ^2-isomer], in series [2], the “inhibitory effect on conversion to dihydrate” value is “minor inhibitory effect”. For the molecule `N[C@@H](C(=O)N[C@@H]1C(=O)N2C(C(=O)O)=C(Cl)CS[C@H]12)c1ccccc1` [cefaclor dihydrate], the “solubility in water relative to the monohydrate form” value in series [3] is “less readily soluble”. As to `N[C@@H](C(=O)N[C@@H]1C(=O)N2C(C(=O)O)=C(Cl)CS[C@H]12)c1ccccc1`, the “dissolved in thirty minutes” value in series [4] came to 78%.

Regarding `N[C@@H](C(=O)N[C@@H]1C(=O)N2C(C(=O)O)=C(Cl)CS[C@H]12)c1ccccc1.O` [Sample 1-1], the “NIR Onset Time” value in series [1] turned out to be 3 min. Turning to `N[C@@H](C(=O)N[C@@H]1C(=O)N2C(C(=O)O)=C(Cl)CS[C@H]12)c1ccccc1` [Sample 2-1a], in series [5] (setting [6]), the Capsule dissolution rate, 1st stage, individual unit was 102% (2×) and 100% and 94% and 101% (2×); the “Capsule dissolution rate, 1st stage (Avg. n = 6)” value stood at 100.

For `N[C@@H](C(=O)N[C@@H]1C(=O)N2C(C(=O)O)=C(Cl)CS[C@H]12)c1ccccc1` [Sample 2-1c], in series [5] (setting [6]), the “Capsule dissolution rate, 1st stage, individual unit” value is 90 and 95 and 97 and 89 and 96 (2×); the “Capsule dissolution rate, 1st stage (Avg. n = 6)” value was found to be 94. Regarding `N[C@@H](C(=O)N[C@@H]1C(=O)N2C(C(=O)O)=C(Cl)CS[C@H]12)c1ccccc1` [Sample 2-1b], in series [5] (setting [6]), the “Capsule dissolution rate, 1st stage, individual unit” value was 91 and 85 and 88 and 96 and 95 and 92; the “Capsule dissolution rate, 1st stage (Avg. n = 6)” value was 90. Regarding `N[C@@H](C(=O)N[C@@H]1C(=O)N2C(C(=O)O)=C(Cl)CS[C@H]12)c1ccccc1.O` [Sample 1-2], in series [1], the “NIR Onset Time” value was determined as 11 min. As for `N[C@@H](C(=O)N[C@@H]1C(=O)N2C(C(=O)O)=C(Cl)CS[C@H]12)c1ccccc1` [amorphous cefaclor, reference compound], in series [1] (indicator tests), the “effect of addition to a cefaclor bulk sample on dihydrate reversion time” value was “decrease the reversion onset time”. With `N[C@@H](C(=O)NC1C(=O)N2C(C(=O)O)=C(Cl)CS[C@H]12)c1ccccc1` (some centres unmarked) [Cefaclor Monohydrate (Control), reference compound], in series [1] (setting [7]), the “NIR onset time, upper control limit” value is recorded as “approximately 2.5 minutes” and the “average NIR onset time” value was 1.2 min. As to `N[C@@H](C(=O)N[C@@H]1C(=O)N2C(C(=O)O)=C(Cl)CS[C@H]12)c1ccccc1` [Sample 2-2a], in series [5] (setting [8]), the “Capsule dissolution rate, 1st stage, individual unit” value was 97 and 92 and 95 and 81 and 98 and 101; the “Capsule dissolution rate, 1st + 2nd stage (Avg. n = 12)” value worked out at 96; the “Capsule dissolution rate, 1st stage (Avg. n = 6)” value is recorded as 94; the “Capsule dissolution rate, 2nd stage (Avg. n = 6)” value was 98. Besides, the “Capsule dissolution rate, 2nd stage, individual unit” value in series [5] (setting [8]) was 98 and 95 and 99 and 100 and 97 and 96.
